Assay results taken from ChEMBL document CHEMBL3431459, “Roche carnitine palmitoyltransferase modulator screening data (supplementary data associated with the publication CHEMBL2216752)”.
In brackets after ≈: the same amount, converted by molar mass.

Key:
[1] = molecular target: T1, Carnitine O-palmitoyltransferase 1, muscle isoform (Homo sapiens, UniProt Q92523); test: SUPPLEMENTARY: Inhibition of Carnitine palmitoyltransferase 1, muscle isoform; set-up: species or system Muscle tissue
T1 sequence (Q92523 whole entry): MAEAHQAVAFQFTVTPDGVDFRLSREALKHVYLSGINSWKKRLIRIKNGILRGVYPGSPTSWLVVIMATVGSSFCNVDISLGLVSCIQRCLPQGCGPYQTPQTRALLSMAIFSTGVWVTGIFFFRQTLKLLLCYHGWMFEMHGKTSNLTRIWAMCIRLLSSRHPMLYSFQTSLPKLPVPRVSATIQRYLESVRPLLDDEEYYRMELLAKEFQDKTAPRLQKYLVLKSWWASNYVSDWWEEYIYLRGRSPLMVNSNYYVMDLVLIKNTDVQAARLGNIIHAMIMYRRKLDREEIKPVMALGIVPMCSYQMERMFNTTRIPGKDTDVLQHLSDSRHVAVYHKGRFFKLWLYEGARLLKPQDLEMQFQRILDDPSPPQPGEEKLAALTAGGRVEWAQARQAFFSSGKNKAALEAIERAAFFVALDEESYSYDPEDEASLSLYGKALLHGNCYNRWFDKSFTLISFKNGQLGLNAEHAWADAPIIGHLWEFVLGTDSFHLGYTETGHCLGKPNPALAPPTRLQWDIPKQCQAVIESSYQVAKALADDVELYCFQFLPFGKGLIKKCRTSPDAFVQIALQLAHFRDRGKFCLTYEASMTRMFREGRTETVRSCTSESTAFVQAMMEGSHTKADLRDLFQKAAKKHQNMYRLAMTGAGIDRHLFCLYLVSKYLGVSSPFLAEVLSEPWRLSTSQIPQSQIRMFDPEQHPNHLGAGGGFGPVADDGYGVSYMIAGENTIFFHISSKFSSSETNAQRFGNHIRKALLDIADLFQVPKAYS

[2] = molecular target: T2, Carnitine O-palmitoyltransferase 2, mitochondrial (Homo sapiens, UniProt P23786); test: (§1) SUPPLEMENTARY: Inhibition of Carnitine palmitoyltransferase 2
T2 sequence (P23786 whole entry): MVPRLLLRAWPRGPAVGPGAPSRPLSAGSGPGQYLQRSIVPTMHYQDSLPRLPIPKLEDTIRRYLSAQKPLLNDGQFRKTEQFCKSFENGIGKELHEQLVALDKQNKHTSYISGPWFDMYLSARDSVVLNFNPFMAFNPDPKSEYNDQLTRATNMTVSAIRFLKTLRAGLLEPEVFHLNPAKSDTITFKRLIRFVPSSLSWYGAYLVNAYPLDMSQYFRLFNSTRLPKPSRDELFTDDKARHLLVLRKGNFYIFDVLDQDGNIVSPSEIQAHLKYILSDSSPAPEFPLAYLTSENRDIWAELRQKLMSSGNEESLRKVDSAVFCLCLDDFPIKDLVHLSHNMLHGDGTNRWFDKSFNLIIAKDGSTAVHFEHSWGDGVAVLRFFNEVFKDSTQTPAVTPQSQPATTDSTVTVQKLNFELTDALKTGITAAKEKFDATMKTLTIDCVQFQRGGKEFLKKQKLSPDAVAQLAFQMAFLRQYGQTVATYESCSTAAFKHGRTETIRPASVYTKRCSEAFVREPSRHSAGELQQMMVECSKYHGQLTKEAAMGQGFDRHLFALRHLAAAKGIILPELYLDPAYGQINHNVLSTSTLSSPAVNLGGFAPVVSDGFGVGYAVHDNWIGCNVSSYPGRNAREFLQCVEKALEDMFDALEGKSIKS

[3] = molecular target: T3, Carnitine O-palmitoyltransferase 2, mitochondrial (Rattus norvegicus, UniProt P18886); test: as §1
T3 sequence (P18886 whole entry): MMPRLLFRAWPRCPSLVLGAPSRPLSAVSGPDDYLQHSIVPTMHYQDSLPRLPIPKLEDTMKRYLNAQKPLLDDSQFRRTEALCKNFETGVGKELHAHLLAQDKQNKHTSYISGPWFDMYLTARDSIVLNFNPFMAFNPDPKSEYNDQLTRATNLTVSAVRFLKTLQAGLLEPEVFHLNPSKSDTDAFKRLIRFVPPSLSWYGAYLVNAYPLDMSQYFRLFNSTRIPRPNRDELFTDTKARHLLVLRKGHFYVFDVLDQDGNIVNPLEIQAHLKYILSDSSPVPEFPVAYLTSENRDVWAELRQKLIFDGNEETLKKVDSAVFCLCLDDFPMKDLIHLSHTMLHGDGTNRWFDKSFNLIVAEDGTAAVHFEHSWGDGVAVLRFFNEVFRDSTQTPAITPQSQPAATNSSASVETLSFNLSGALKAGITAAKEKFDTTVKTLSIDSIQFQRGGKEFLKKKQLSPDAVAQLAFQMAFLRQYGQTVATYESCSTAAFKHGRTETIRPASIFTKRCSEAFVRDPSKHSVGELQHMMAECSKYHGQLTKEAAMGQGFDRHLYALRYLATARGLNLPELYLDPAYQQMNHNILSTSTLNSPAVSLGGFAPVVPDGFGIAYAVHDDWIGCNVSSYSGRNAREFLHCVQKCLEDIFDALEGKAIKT

[4] = molecular target: T4, Carnitine O-palmitoyltransferase 1, liver isoform (Homo sapiens, UniProt P50416); test: (§2) SUPPLEMENTARY: Inhibition of Carnitine palmitoyltransferase 1, liver isoform
T4 sequence (P50416 whole entry): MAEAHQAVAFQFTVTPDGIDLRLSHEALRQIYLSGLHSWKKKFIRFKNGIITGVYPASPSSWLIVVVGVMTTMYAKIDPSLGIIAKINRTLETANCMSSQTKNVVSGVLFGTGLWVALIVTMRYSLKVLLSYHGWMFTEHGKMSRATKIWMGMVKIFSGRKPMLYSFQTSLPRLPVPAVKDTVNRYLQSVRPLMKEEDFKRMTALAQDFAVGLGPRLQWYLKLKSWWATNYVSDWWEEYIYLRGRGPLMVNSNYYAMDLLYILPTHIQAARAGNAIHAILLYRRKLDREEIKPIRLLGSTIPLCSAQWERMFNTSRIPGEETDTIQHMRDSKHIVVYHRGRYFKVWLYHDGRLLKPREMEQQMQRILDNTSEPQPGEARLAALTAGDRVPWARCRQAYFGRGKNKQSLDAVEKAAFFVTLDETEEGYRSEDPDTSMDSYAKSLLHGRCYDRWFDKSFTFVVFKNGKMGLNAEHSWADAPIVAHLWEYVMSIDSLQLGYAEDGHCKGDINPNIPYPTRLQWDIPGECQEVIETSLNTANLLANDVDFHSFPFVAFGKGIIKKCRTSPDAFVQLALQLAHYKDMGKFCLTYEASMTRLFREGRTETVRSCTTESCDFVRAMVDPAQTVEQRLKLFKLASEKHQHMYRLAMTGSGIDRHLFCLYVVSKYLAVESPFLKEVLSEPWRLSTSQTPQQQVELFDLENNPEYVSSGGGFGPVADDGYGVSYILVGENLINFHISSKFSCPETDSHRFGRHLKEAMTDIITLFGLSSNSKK

[5] = molecular target: T5, Carnitine O-palmitoyltransferase 1, liver isoform (Rattus norvegicus, UniProt P32198); test: as §2
T5 sequence (P32198 whole entry): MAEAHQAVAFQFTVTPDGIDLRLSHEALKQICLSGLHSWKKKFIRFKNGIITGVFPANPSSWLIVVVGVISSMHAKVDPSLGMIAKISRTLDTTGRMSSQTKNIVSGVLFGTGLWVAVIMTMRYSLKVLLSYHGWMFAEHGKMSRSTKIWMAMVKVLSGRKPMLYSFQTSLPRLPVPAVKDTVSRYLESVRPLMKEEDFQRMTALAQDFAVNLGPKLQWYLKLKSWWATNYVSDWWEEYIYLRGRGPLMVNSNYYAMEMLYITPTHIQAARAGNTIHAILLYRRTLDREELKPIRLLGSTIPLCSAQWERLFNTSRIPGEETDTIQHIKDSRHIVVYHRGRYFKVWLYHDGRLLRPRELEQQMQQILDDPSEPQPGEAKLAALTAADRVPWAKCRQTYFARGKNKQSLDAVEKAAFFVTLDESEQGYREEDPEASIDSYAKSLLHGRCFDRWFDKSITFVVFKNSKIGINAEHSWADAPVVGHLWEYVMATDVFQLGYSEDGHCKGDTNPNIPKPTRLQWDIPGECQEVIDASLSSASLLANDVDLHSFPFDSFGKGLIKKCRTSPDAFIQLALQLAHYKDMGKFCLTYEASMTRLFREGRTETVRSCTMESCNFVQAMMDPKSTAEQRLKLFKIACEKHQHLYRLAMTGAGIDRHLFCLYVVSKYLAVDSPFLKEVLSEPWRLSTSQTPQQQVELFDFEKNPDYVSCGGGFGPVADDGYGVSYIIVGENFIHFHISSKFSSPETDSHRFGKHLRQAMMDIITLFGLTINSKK

[6] = SUPPLEMENTARY: Lyophilisation Solubility Assay (LYSA); format: physicochemical; conditions: read-out: Kinetic_solubility
[7] = SUPPLEMENTARY: PAMPA permeability assay; format: physicochemical; conditions: read-out: Permeability

Row | SMILES | IC50 [1] | IC50 [2] | IC50 [3] | IC50 [4] | IC50 [5] | solubility kinetic [6] | Papp [7]
1 | COc1ccc(C)cc1S(=O)(=O)n1ccc2ccc(C(=O)Nc3ccc(C(=O)O)cc3)cc21 | 2.65 µM | 1.07 µM | 2.67 µM | 0.0294 µM | 0.0119 µM | < 1 µg/mL | 1.23 ×10⁻⁶ cm/s
2 | Nc1cccc(-c2nc([C@H]3CCCCN3C(=O)COc3ccccc3)no2)n1 | > 100 µM | 32 µM | > 100 µM | 0.111 µM | 0.255 µM | 25 µg/mL (≈ 65.9 µM) | 5.45 ×10⁻⁶ cm/s
3 | COc1ccc(Cl)cc1Cn1ccc2ccc(C(=O)Nc3nc(CC(=O)O)cs3)cc21 | 24.2 µM | > 100 µM | > 100 µM | 0.17 µM | 0.0905 µM | 13 µg/mL (≈ 28.5 µM) | 1.14 ×10⁻⁶ cm/s
4 | COc1ccc(Cl)cc1S(=O)(=O)c1nn(C)c2ccc(C(=O)Nc3ccc(C(=O)O)cc3)cc12 | > 100 µM | > 100 µM | > 100 µM | 0.05 µM | 0.0648 µM | 8 µg/mL (≈ 16 µM) | 1.89 ×10⁻⁶ cm/s
5 | COc1ccc(Cl)cc1CN1C(=O)C2(CC2)c2ccc(C(=O)Nc3ccc(C(=O)O)cc3)cc21 | 11 µM | 1.27 µM | 19.6 µM | 0.123 µM | 0.148 µM | 13 µg/mL (≈ 27.3 µM) | 1.24 ×10⁻⁶ cm/s
6 | COc1ccc(Cl)cc1S(=O)(=O)c1c[nH]c2ccc(C(=O)Nc3ccccc3)cc12 | > 100 µM | > 100 µM | > 100 µM | 0.114 µM | 0.0838 µM | 1 µg/mL (≈ 2.27 µM) | 0.06 ×10⁻⁶ cm/s
7 | COc1ccc(Cl)cc1S(=O)(=O)c1cn(CC(N)=O)c2ccc(C(=O)Nc3ccccc3)cc12 | > 100 µM | > 100 µM | > 100 µM | 0.0128 µM | 0.0171 µM | 2 µg/mL (≈ 4.02 µM) | 0.3 ×10⁻⁶ cm/s
8 | COc1ccc(Cl)cc1S(=O)(=O)N1CCc2c(C)cc(C(=O)Nc3nc(CC(=O)O)cs3)cc21 | > 100 µM | > 100 µM | > 100 µM | 0.0193 µM | 0.012 µM | 249 µg/mL (≈ 477 µM) | 2.03 ×10⁻⁶ cm/s
9 | COc1ccc(Cl)cc1S(=O)(=O)c1nn(CCC(=O)O)c2ccc(C(=O)Nc3ccccc3)cc12 | 49.4 µM | > 100 µM | > 100 µM | 0.0147 µM | 0.0066 µM | 25 µg/mL (≈ 48.6 µM) | 0.67 ×10⁻⁶ cm/s
10 | Cc1cc(C)cc(S(=O)(=O)c2nn(CC(=O)O)c3ccc(C(=O)Nc4ccccc4)cc23)c1 | 8.83 µM | > 100 µM | > 100 µM | 0.0337 µM | 0.0217 µM | 71 µg/mL (≈ 153 µM) | 0.01 ×10⁻⁶ cm/s

The next compounds have a lower IC50 [1] than those just listed; values first:

Row | IC50 [1] | IC50 [2] | IC50 [3] | IC50 [4] | IC50 [5] | solubility kinetic [6] | Papp [7] | SMILES
11 | 1.13 µM | 5.07 µM | 7.4 µM | 0.0434 µM | 0.0214 µM | 7 µg/mL (≈ 16 µM) | 0.13 ×10⁻⁶ cm/s | Cn1cc(Sc2cccc(Cl)c2)c2cc(C(=O)Nc3ccc(C(=O)O)cc3)ccc21
12 | 0.932 µM | > 100 µM | > 100 µM | 0.175 µM | 0.106 µM | 4 µg/mL (≈ 7.53 µM) | 3.3 ×10⁻⁶ cm/s | COc1ccc(Cl)cc1S(=O)(=O)N1CCOc2ccc(C(=O)Nc3ccc(CCC(=O)O)cc3)cc21
13 | 1.22 µM | 4.06 µM | 23.9 µM | 0.245 µM | 0.0508 µM | 30 µg/mL (≈ 56.7 µM) | 1.1 ×10⁻⁶ cm/s | COc1ccc(Cl)cc1CN1C(=O)OC(C)(C)c2ccc(C(=O)Nc3ccc(C(=O)O)c(Cl)c3)cc21
14 | 0.95 µM | > 100 µM | > 100 µM | 0.152 µM | 0.151 µM | 6 µg/mL (≈ 13 µM) | 1.89 ×10⁻⁶ cm/s | Cc1cc(C)cc(S(=O)(=O)n2ccc3ccc(C(=O)Nc4ccc(CC(=O)O)cc4)cc32)c1
15 | 2.33 µM | 1.35 µM | 9.31 µM | 0.0399 µM | 0.102 µM | 23 µg/mL (≈ 51.2 µM) | 0.47 ×10⁻⁶ cm/s | COc1ccc(Cl)cc1Cc1cn(C)c2ccc(C(=O)Nc3ccc(C(=O)O)cc3)cc12
16 | 0.512 µM | 15.4 µM | > 100 µM | 0.474 µM | 1.39 µM | 19 µg/mL (≈ 51.3 µM) | 1.73 ×10⁻⁶ cm/s | O=C(Cn1cc(-c2ccccc2)c2ccccc21)Nc1ccc(C(=O)O)cc1
